Laboratory results as given in ChEMBL document CHEMBL1155022, “Aerucyclamides A and B: isolation and synthesis of toxic ribosomal heterocyclic peptides from the cyanobacterium Microcystis aeruginosa PCC 7806” (J Nat Prod, 2008).

Experiment: Acute grazer toxicity against Thamnocephalus platyurus after 24 hrs
Format: organism-based
Details: in vivo

In the case of `CC[C@H](C)[C@@H]1NC(=O)[C@H]2CSC(=N2)[C@@H]([C@@H](C)CC)NC(=O)c2csc(n2)CNC(=O)[C@H]2N=C1O[C@@H]2C` [AERUCYCLAMIDE A], the LC50 at 24 h is reported as 30.5 µM.

Work on `CC[C@H](C)[C@@H]1NC(=O)c2csc(n2)[C@@H]([C@@H](C)CC)NC(=O)c2csc(n2)CNC(=O)[C@H]2N=C1O[C@@H]2C` [AERUCYCLAMIDE B] yielded an LC50 at 24 h of 33.8 µM.
